Laboratory results from patent USRE29359E, “Bronchodilator expectorant composition containing theophylline and a guaiacol” (priority 1976, dated 1977).
In brackets after ≈: the same amount, converted by molar mass. Where two headings read alike, the source gives them in different places.

What was measured:
[1] = cited from earlier work
[2] = cited from earlier work; remark: listed apart in the source
[3] = Sucrose as supplementary solubilizing agent, crystallization after 3 days (Example 5)
Procedure: Solutions containing varying quantities of theophylline, glyceryl guaiacolate, and sucrose according to the figures arranged in the following table are prepared. The ingredients are warmed to about 60° C. to effect solution and the solutions are then kept at room temperature to observe whether crystallization occurs. Sucrose is taken as representative of the total of all other water soluble pharmaceutically acceptable ingredients that may be used in formulating the present compositions for the purposes of this experiment. It is apparent, of course, that the actual weight of flavors, colors, and other ingredients that will ordinarily be used for the purpose of creating pharmaceutical elegance will be relatively minor and that sucrose or equivalent material such as corn syrup or sorbitol is the only ingredient of this type which will ordinarily be used in substantial quantity.
(§1) (1) per 100 ml. of solution.
(§2) (2) per 100 ml. of water in solution.
*Appearance of duplicate samples after being stored separately at
26° C. and at 0° C. for 3 days.

[4] = Guaiacol as solubilizing agent for theophylline in water (Example 2); format: physicochemical
Procedure: In order to test the effectiveness of guaiacol as a solubilizing agent for theophylline in water, an experiment corresponding to the last entry in the table accompanying Example 1 is conducted. Theophylline, 4.0 g., and guaiacol, 4.39 g. […] A haze forms as the result of liquefaction of the guaiacol without complete solution thereof.
This amount will solubilize up to and including 4.25 g. of theophylline per 100 ml. of water in the composition. For lower theophylline concentrations, proportionately less guaiacol may be used, 0.47 g. thereof per 100 ml. being sufficient to solubilize 0.85 g. of theophylline per 100 ml.

[5] = accepted by the art; cited from earlier work
[6] = Solubility of theophylline in water with glyceryl guaiacolate, crystallization after 3 days (Example 1); format: physicochemical; settings: for Result (appearance after storage): 3 days
Procedure: Varying quantities of theophylline and glyceryl guaiacolate are mixed and warmed with sufficient water to provide 100 ml. of solution. The solutions are cooled, adjusted to 100 ml. volume, and kept for 3 days to allow crystallization to take place. The specific gravities of the fresh solutions are measured, and the amount of water contained in 100 ml. of solution calculated. Two identical tubes of each composition are prepared. One is kept at room temperature (25° C.) and the other at 0° C.
A larger quantity of theophylline, 1.0 g./100 ml., will, however, dissolve when 0.75 g. of glyceryl guaiacolate per 100 ml. is also present in solution. Up to 4.0 g. of theophylline per 100 ml. of solution is soluble at room temperature when 7.0 g. of glyceryl guaiacolate per 100 ml. of solution is employed.
as §1, §2

[7] = Solubility in water or ethanol (statements in the description)
[8] = cited from earlier work; remark: listed apart in the source

Cn1c(=O)c2[nH]cnc2n(C)c1=O [aminophylline]
precipitation under acidic conditions ([1]; acidic conditions such as occur in the stomach): precipitation often occurs | solubility in alkaline solution ([1]; in excess of pH 8.0): relatively high solubilities in alkaline solution

COc1ccccc1OCC(O)CO (stereo not drawn) [glyceryl guaiacolate]
concentration of saturated solution in water ([2]; 25 °C): 5 g./100 ml. | water solubility [2]: ≥ 1.7 g./100 ml. | glyceryl guaiacolate per 100 ml. of water in composition [3]: 8.7 g. per 100 ml. of water | glyceryl guaiacolate upper concentration limit with sucrose ([3]; water, 72 h): ≥ 8.7 g. per 100 ml. of water

COc1ccccc1O [guaiacol]
concentration of saturated solution in water ([2]; room temperature, absence of other solutes): 1.7 g./100 ml. | water solubility [2]: ≥ 1.7 g./100 ml. | specific gravity of solution ([4]; guaiacol 3.8 g, theophylline 4.0 g): ~1.016 | crystallization on storage ([4]; guaiacol 3.8 g, 3 days, room temperature or 0 °C): no crystals separate | useful upper guaiacol solubility ratio ([4]; room temperature or 0 °C, 4320 min): about 4.05 g. per 100 ml. of water | appearance of solution ([4]; theophylline 4.0 g, guaiacol 3.8 g): clear solution | appearance of solution ([4]; theophylline 4.0 g, guaiacol 4.39 g): A haze forms | guaiacol dissolved in 100 ml. of water ([4]; with 4.37 g. theophylline): 4.05 g

COc1ccccc1OC1(O)C(=O)NC(=O)NC1=O [hemiacetal condensation product of guaiacol and alloxan]
water solubility [2]: ≥ 1.7 g./100 ml.

COc1cc(S(=O)(=O)[O-])ccc1O.O.[K+] [potassium guaiacol sulfonate]
water solubility [2]: ≥ 1.7 g./100 ml. | crystallization on storage (potassium guaiacol sulfonate 4.28 g, theophylline 1.5 g per 100 ml., ice temperature): Slight crystallization occurs | appearance of solution (potassium guaiacol sulfonate 4.28 g, theophylline 1.5 g per 100 ml., room temperature): clear solution | crystallization on storage (potassium guaiacol sulfonate 4.28 g, theophylline 2 g per 100 ml., 0 °C): Crystallization from this solution occurs | separation of solid on storage (potassium guaiacol sulfonate 4.28 g, theophylline 2 g per 100 ml., room temperature): only very slight separation of solid material occurs | crystallization on storage (potassium guaiacol sulfonate 8.56 g, theophylline 4.0 g in 100 ml., 0 °C): Crystallization from this solution occurs | crystallization on storage (potassium guaiacol sulfonate 8.56 g, theophylline 4.0 g in 100 ml., room temperature): Crystallization from this solution occurs

Cn1c(=O)c2[nH]cnc2n(C)c1=O [theophylline]
therapeutic blood concentration [5]: 5 µg/mL | solubility in ethanol ([2]; published figure): 1.25 g./100 ml. | theophylline per 100 ml. of water in composition [3]: 4.4 g. per 100 ml. of water | solubility at 72 h ([3]; water): ≥ 44 mg/mL | crystallization at ice temperature ([6]; 4.0 g theophylline, 7.0 g glyceryl guaiacolate per 100 ml. solution): Crystallization at ice temperature does, however, occur | crystallization at ice temperature ([6]; 4.37 g theophylline, 7.64 g glyceryl guaiacolate per 100 ml. water): Slight crystallization | theophylline soluble per 100 ml. of solution ([6]; glyceryl guaiacolate 7.0 g. per 100 ml. of solution, room temperature, 4320 min): Up to 4.0 g. per 100 ml. of solution | Result (appearance after storage) ([6]; theophylline 0.83 g, glyceryl guaiacolate 0 per 100 ml solution, 25 °C): Clear Solution | Result (appearance after storage) ([6]; theophylline 0.85 g, glyceryl guaiacolate 0 per 100 ml solution, 0 °C): Crystals formed. | Result (appearance after storage) ([6]; theophylline 1.00 g, glyceryl guaiacolate 0.75 g per 100 ml solution, 25 °C): Solution clear. | Result (appearance after storage) ([6]; theophylline 3.50 g, glyceryl guaiacolate 4.00 g per 100 ml solution, 0 °C): Crystals formed. | Result (appearance after storage) ([6]; theophylline 3.50 g, glyceryl guaiacolate 5.00 g per 100 ml solution, 25 °C): Clear solution. | Result (appearance after storage) ([6]; theophylline 4.00 g, glyceryl guaiacolate 7.00 g per 100 ml solution, 0 °C): Crystals formed. | Result (appearance after storage) ([6]; theophylline 4.00 g, glyceryl guaiacolate 7.00 g per 100 ml solution, 25 °C): Clear solution. | solubility ([6]; water, no glyceryl guaiacolate, read-out: normal solubility of theophylline (exceeded by)): < 8.5 mg/mL | concentration in aqueous solution with guaiacol or water soluble forms thereof ([7]; solubilized by guaiacol and water soluble forms): ≤ 4.0 g./100 ml. | effect of water soluble ingredients on theophylline solubility ([7]; sucrose, sorbitol, glycerol, ethanol, solubilized by guaiacol and its derivatives): do not tend to diminish the solubility of the theophylline significantly | solubility ([7]; water): 80 mg/mL (≈ 444 mM) | theophylline solubilized by guaiacol ([4]; guaiacol 0.47 g. per 100 ml.): 0.85 g. per 100 ml. | theophylline solubilized per 100 ml. of water ([4]; guaiacol about 4.05 g. per 100 ml. water, 4320 min): ≤ 4.25 g. per 100 ml. of water | pain on intramuscular injection ([8]; intramuscular): painful | absorption pattern ([8]; oral): irregular absorption pattern | gastrointestinal side effects ([8]; oral): frequently results in abdominal discomfort, nausea, and vomiting
